Converted amounts (≈) assume the structure as drawn. Counter-ions that a name gives are not always drawn. Like-named read-outs stand apart in the source and are kept apart here.
Tests used:
Format in all cases: physicochemical
[1] = Dynamic vapor sorption (DVS) of salts (38.9); settings: for DVS absorption / moisture: between 0% to 90% RH
Procedure: DVS was determined using IGA Sorp (Hiden Isochema, UK). The sample was tested at a targeted RH of 0 to 90% full cycle in step mode. The analysis was performed in 10% RH increments.

[2] = One week accelerated stability testing (Example 3)
Procedure: The stability of Phosphate Polymorphic Form A and Free Base Polymorphic Form A were evaluated under accelerated conditions.

[3] = Solubility in aqueous buffers, SGF, FaSSIF and FeSSIF (Example 15); settings: ~20-25° C., ~24 hours; for solubility thermodynamic: 20 °C, thermodynamic from solid, read-out: Measured Conc.; for Measured Conc. (μg/mL): LOQ: 0.1 μg/mL
Procedure: About 2 mg of test article was added to a 1.5 mL vials which contained ˜1.0 mL of one medium listed in Table 7 and Table 8, which was then sealed. The mixtures were stirred at ˜20-25° C. for ˜24 hours. After that, the mixture was filtered by 0.45 μm filter membrane and then the supernatant was analyzed by HPLC.

[4] = Intrinsic dissolution rate in SGF (Example 16); settings: 37° C., 100 rpm, linear scope within 2 to 120 min
Procedure: About 100 mg of Free Base Polymorphic Form A or Phosphate Polymorphic Form A was weighed into the intrinsic dissolution apparatus and the sample compressed for 1 minute with a compression force of ˜4 MPa to form a compacted pellet within the stainless-steel die. All loose powder was removed from the surface of the die. The intrinsic dissolution shaft was connected with the stainless-steel die and tightened so only one surface of the pellet was exposed (surface area=0.496 cm^2). The shaft in the spindle was adjusted to ensure the exposed surface of the compacted tablet was ˜3.8 cm from the bottom of the vessel when lowered. The temperature of chamber water was set at 37° C.±0.5° C., the shaft rotation at 100 rpm and the sampling time points at 2, 5, 10, 15, 30, 45, 60, 120 min. SGF was used as dissolution medium (900 mL). At each time point, solution samples were filtered, and the supernatant was analyzed by HPLC-UV.

[5] = Solid stability of free base and salts at 60° C. and 40° C./75% RH (38.3, Example 48); settings: for chemical stability / physical stability (crystal form by XRPD): 60° C. and 40° C./75% RH for 7 days; for Crystal form day 7: XRPD
Procedure: Samples of TPA023B Free Base, TPA023B chloride, TPA023B besylate, and TPA023B sulfate were mounted on stability at 60° C. and 40° C./75% RH for up to 7 days. At day-0, day-3 and day-7, the samples were dissolved in diluent to prepare solutions at 0.5 mg/mL for HPLC analysis. Solid samples were analyzed by XRPD to determine the crystal form.
Solid samples were examined using D8 ADVANCE X-ray diffractometer (Bruker). The diffractometer was equipped with LynxEye detector. In XRPD analysis, samples were scanned from 3 to 40° 2θ at a step of 0.02° 2θ. The tube voltage and current were 40 KV and 40 mA, respectively.

[6] = Reactive crystallization with 1.1 eq phosphoric acid (Example 65); settings: stirred at RT 7 hours
Procedure: About 25 mg of Free Base Form H was dissolved or suspended in ˜1 mL of a selected solvent. […] The solid was isolated and characterized.
Free Base Form H was dissolved or suspended in ˜1 mL selected solvent. […] Solid was isolated and characterized. No new phosphate Form was obtained in reactive crystallization under this method.

[7] = Slurry of chloride or besylate salt in EA or heptane at 50° C. overnight; settings: slurried in EA or heptane at 50° C. overnight
[8] = 40° C./75% RH, listed as Free base (Form A)
[9] = 60° C., listed as Free base (Form A)

CC(C)(O)c1cnn2c(-c3ccc(F)c(-c4c(F)cccc4C#N)c3)cnc2n1 [Chloride Form B, 2′,6-difluoro-5′-[3-(1-hydroxy-1-methylethyl)-imidazo[1,2-b][1,2,4]triazin-7-yl]biphenyl-2-carbonitrile]
XRPD after DVS [1]: No XRPD change after DVS. | DVS absorption / moisture [1]: DVS: 0-1.4691% absorption

CC(C)(O)c1cnn2c(-c3ccc(F)c(-c4c(F)cccc4C#N)c3)cnc2n1 [Free Base Polymorphic Form A, 2′,6-difluoro-5′-[3-(1-hydroxy-1-methylethyl)-imidazo[1,2-b][1,2,4]triazin-7-yl]biphenyl-2-carbonitrile]
Assay (%) ([2]; 40° C./75% RH (open), 1 week): 102.35% | Purity (%) ([2]; 40° C./75% RH (open), 1 week): 98.64% | Assay (%) ([2]; 80° C. (open), 1 week): 101.60% | Purity (%) ([2]; 80° C. (open), 1 week): 98.62% | Purity (%) ([2]; Initial): 98.72% | Assay (%) ([2]; Initial, assay criterion 95%-105%): 105.51% | Assay (%) ([2]; Light, ~50 h): 104.28% | Purity (%) ([2]; Light, ~50 h): 98.60% | Measured Conc. ([3]; Purified water): 0.14 µg/mL | solubility thermodynamic ([3]; fasted-state simulated intestinal fluid (FaSSIF), fassif, FaSSIF): 2.11 µg/mL (≈ 5.39 µM) | solubility thermodynamic ([3]; fed-state simulated intestinal fluid (FeSSIF), fessif, FeSSIF): 9.63 µg/mL (≈ 24.6 µM) | Measured Conc. ([3]; pH 1.2 Hydrochloric Acid Buffer (50 mM)): 9.77 µg/mL | Measured Conc. (μg/mL) ([3]; pH 3.0 citrate buffer (100 mM)): <LOQ | Measured Conc. (μg/mL) ([3]; pH 4.5 citrate buffer (100 mM)): <LOQ | Measured Conc. (μg/mL) ([3]; pH 7.4 PBS (50 mM)): <LOQ | Measured Conc. (μg/mL) ([3]; pH 9.0 USP Buffer (50 mM)): <LOQ | solubility thermodynamic ([3]; simulated gastric fluid (SGF), simulated gastric fluid, SGF): 1.38 µg/mL (≈ 3.53 µM) | intrinsic dissolution rate [4]: 5×10^−5 mg·cm^2·min^−1 | HPLC Purity (%) day 3 [5, 8]: 98.2% | HPLC Purity (%) day 7 [5, 8]: 98.2% | chemical stability [5]: chemically stable | physical stability (crystal form by XRPD) ([5]; listed as TPA023B free base): physically stable | physical stability (crystal form by XRPD) ([5]; listed as TPA-23B free base): remained unchanged | HPLC Purity (%) day 3 [5, 9]: 98.1% | HPLC Purity (%) day 7 [5, 9]: 98.3% | HPLC Purity (%) day 0 ([5]; listed as Free base (Form A)): 98.1%

CC(C)(O)c1cnn2c(-c3ccc(F)c(-c4c(F)cccc4C#N)c3)cnc2n1 [Free Base Polymorphic Form H, 2′,6-difluoro-5′-[3-(1-hydroxy-1-methylethyl)-imidazo[1,2-b][1,2,4]triazin-7-yl]biphenyl-2-carbonitrile]
Result (solid form obtained) ([6]; solvent 1,4-dioxane): Phosphate Form A | Result (solid form obtained) ([6]; solvent ACN): Phosphate Form A | Result (solid form obtained) ([6]; solvent Acetone): Phosphate Form A | Result (solid form obtained) ([6]; solvent BAC): Phosphate Form A | Result (solid form obtained) ([6]; solvent Cyclohexanone): Phosphate Form A | Result (solid form obtained) ([6]; solvent DCM): Phosphate Form A | Result (solid form obtained) ([6]; solvent DEE): Phosphate Form A | Result (solid form obtained) ([6]; solvent EA): Phosphate Form A | Result (solid form obtained) ([6]; solvent IPAC): Phosphate Form A | Result (solid form obtained) ([6]; solvent MEK): Phosphate Form A | Result (solid form obtained) ([6]; solvent MTBE): Phosphate Form A | Result (solid form obtained) ([6]; solvent N-pentane): Phosphate Form A | Result (solid form obtained) ([6]; solvent PPG 2000): Phosphate Form A | Result (solid form obtained) ([6]; solvent Trichloromethane): Phosphate Form A | Result (solid form obtained) ([6]; solvent polysorbate 80): Phosphate Form A

CC(C)(O)c1cnn2c(-c3ccc(F)c(-c4c(F)cccc4C#N)c3)cnc2n1 [TPA023B Besylate (Form A), 2′,6-difluoro-5′-[3-(1-hydroxy-1-methylethyl)-imidazo[1,2-b][1,2,4]triazin-7-yl]biphenyl-2-carbonitrile]
HPLC Purity (%) day 3 ([5]; 40° C./75% RH): 98.8% | HPLC Purity (%) day 7 ([5]; 40° C./75% RH): 98.8% | Crystal form day 7 ([5]; 40° C./75% RH): three extra peaks | Crystal form day 7 ([5]; 40° C./75% RH, listed as TPA-23B besylate): three extra peaks | chemical stability [5]: chemically stable | HPLC Purity (%) day 3 ([5]; 60° C.): 98.8% | HPLC Purity (%) day 7 ([5]; 60° C.): 98.8% | HPLC Purity (%) day 0 [5]: 98.8% | XRPD after DVS [1]: No XRPD change after | DVS absorption / moisture [1]: DVS: 0-1.047% moisture | crystal form after slurry [7]: remained unchanged

CC(C)(O)c1cnn2c(-c3ccc(F)c(-c4c(F)cccc4C#N)c3)cnc2n1 [TPA023B Sulfate (Form A), 2′,6-difluoro-5′-[3-(1-hydroxy-1-methylethyl)-imidazo[1,2-b][1,2,4]triazin-7-yl]biphenyl-2-carbonitrile]
HPLC Purity (%) day 3 ([5]; 40° C./75% RH): 98.8% | HPLC Purity (%) day 7 ([5]; 40° C./75% RH): 98.8% | chemical stability [5]: chemically stable | physical stability (crystal form by XRPD) [5]: physically stable | physical stability (crystal form by XRPD) ([5]; listed as TPA-23B sulfate): remained unchanged | HPLC Purity (%) day 3 ([5]; 60° C.): 98.8% | HPLC Purity (%) day 7 ([5]; 60° C.): 98.8% | HPLC Purity (%) day 0 [5]: 98.8% | XRPD after DVS [1]: No XRPD change after | hygroscopicity [1]: light hygroscopicity | DVS absorption / moisture [1]: DVS: 0-1.206% moisture

CC(C)(O)c1cnn2c(-c3ccc(F)c(-c4c(F)cccc4C#N)c3)cnc2n1 [TPA023B chloride (Form C), 2′,6-difluoro-5′-[3-(1-hydroxy-1-methylethyl)-imidazo[1,2-b][1,2,4]triazin-7-yl]biphenyl-2-carbonitrile]
HPLC Purity (%) day 3 ([5]; 40° C./75% RH): 98.8% | HPLC Purity (%) day 7 ([5]; 40° C./75% RH): 98.7% | chemical stability [5]: chemically stable | physical stability (crystal form by XRPD) [5]: physically stable | physical stability (crystal form by XRPD) ([5]; listed as TPA-23B chloride): remained unchanged | HPLC Purity (%) day 3 ([5]; 60° C.): 98.4% | HPLC Purity (%) day 7 ([5]; 60° C.): 98.4% | HPLC Purity (%) day 0 [5]: 97.6% | crystal form after slurry [7]: remained unchanged
